Source: US20250051319A1 (AUGUSTINE THERAPEUTICS, priority 2021, published 2025)

These molecules were tested against catalytic domain 2 (CD2) of HDAC6 (Homo sapiens (Human), UniProt Q9UBN7) (assay: Cellular target engagement assay - NanoBRET). Settings: NanoLuc-HDAC6(CD2) in HEK293T cells, 2 hours, read-out: IC50 (HDAC6(CD2) interaction).
Assay type: cell-based
Protocol: NanoBRET target engagement was performed against the catalytic domain 2 (CD2) of HDAC6, with minor modifications of kit manufacturer protocol (Promega). Expression of exogenous NanoLuc-HDAC6(CD2) fusion and in HEK293T was achieved following transient transfection with FuGENE HD Transfection Reagent (Promega). The intracellular target engagement assay on HDAC6(CD2) was performed in a 384-well plate format with 8,000 cells per well and a tracer concentration of 0.125 μM or 0.600 μM for HDAC6(CD2). Compounds (dissolved in 100% DMSO) or DMSO (vehicle) were added either manually by diluting them in culture medium at 8× final assay concentration and then adding 5 μL to assay plate or in an automated way by adding […] compound to 5 μL OptiMEM without phenol red (Gibco) using the Echo650 (Labcyte). Tracer solution was added to the cells before seeding 35 μL cell/tracer mixture in the assay plate. The final reaction volume was 40 μL, final DMSO concentration was 1.4% (manual compound addition) or 1.25% (automated compound addition). Assay plates were incubated at 37° C. in a humidified atmosphere containing 5% C02 for 2 hours. The NanoBRET Nano-glo Substrate/Inhibitor was prepared by diluting NanoBRET Nano-Glo Substrate (1:332) and Extracellular Inhibitor (1:1000) in assay medium (Promega). […] BRET ratios were calculated from acceptor/donor signal ratio (mBRET=acceptor/donor*1000) and normalized for each plate. Percentage inhibition was calculated by setting the mBRET obtained with cells without tracer to 100%, while the mBRET obtained with uninhibited cells with tracer was set to 0%. IC50-values were calculated from the percentage inhibition with the log(inhibitor) vs. response—Variable slope (four parameters) nonlinear regression in GraphPad Prism software.

Sequence of catalytic domain 2 (CD2) of HDAC6 (Q9UBN7 482-800): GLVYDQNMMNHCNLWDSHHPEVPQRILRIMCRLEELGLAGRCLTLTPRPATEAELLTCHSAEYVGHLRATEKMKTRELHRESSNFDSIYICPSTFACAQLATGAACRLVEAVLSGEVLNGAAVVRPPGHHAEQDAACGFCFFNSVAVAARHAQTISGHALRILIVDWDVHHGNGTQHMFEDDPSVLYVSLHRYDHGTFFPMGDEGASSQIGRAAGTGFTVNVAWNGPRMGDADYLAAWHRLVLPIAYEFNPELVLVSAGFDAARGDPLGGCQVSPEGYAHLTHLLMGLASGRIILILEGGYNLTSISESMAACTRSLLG

Structure (SMILES) | IC50 [nM]
Cn1ncc2c(SCC(=O)c3ccc(CNC(=O)C(O)C(F)(F)F)s3)ncnc21 (stereo not drawn) [Compound 42, 3,3,3-trifluoro-2-hydroxy-N-((5-(2-((1-methyl-1H-pyrazolo[3,4-d]pyrimidin-4-yl)thio)acetyl)thiophen-2-yl)methyl)propanamide] | 500 to 1000
O=C(CSc1nc2nc(C(F)(F)F)ccc2o1)c1ccc(CNC(=O)C2(O)CC2)s1 [Compound 45, 1-hydroxy-N-((5-(2-((5-(trifluoromethyl)oxazolo[4,5-b]159yrrolid-2-yl)thio)acetyl)thiophen-2-yl)methyl)cyclopropane-1-carboxamide] | ≤ 100
Cn1cc2c(SCC(=O)c3ccc(CNC(=O)C(O)C(F)(F)F)s3)nc(C(F)(F)F)nc2n1 (stereo not drawn) [Compound 46, 3,3,3-trifluoro-2-hydroxy-N-((5-(2-((2-methyl-6-(trifluoromethyl)-2H-pyrazolo[3,4-d]pyrimidin-4-yl)thio)acetyl)thiophen-2-yl)methyl)propanamide] | ≤ 100
O=C(CSc1nc(C(F)(F)F)nc2ccc(N3CCOCC3)cc12)c1ccc(CNC(=O)C2(O)CC2)s1 [Compound 47, 1-hydroxy-N-((5-(2-((6-morpholino-2-(trifluoromethyl)quinazolin-4-yl)thio)acetyl)thiophen-2-yl)methyl)cyclopropane-1-carboxamide] | 100 to 500
Cn1cc2c(SCC(=O)c3ccc(CNC(=O)C(C)(C)O)s3)nc(C(F)(F)F)nc2n1 [Compound 48, 2-hydroxy-2-methyl-N-((5-(2-((2-methyl-6-(trifluoromethyl)-2H-pyrazolo[3,4-d]pyrimidin-4-yl)thio)acetyl)thiophen-2-yl)methyl)propanamide] | ≤ 100
Cn1cc2c(SCC(=O)c3ccc(CNC(=O)C4(O)CC4)s3)nc(C(F)(F)F)nc2n1 [Compound 49, 1-hydroxy-N-((5-(2-((2-methyl-6-(trifluoromethyl)-2H-pyrazolo[3,4-d]pyrimidin-4-yl)thio)acetyl)thiophen-2-yl)methyl)cyclopropane-1-carboxamide] | ≤ 100
COc1ccc2nc(C)nc(SCC(=O)c3ccc(CNC(=O)C4(O)CC4)s3)c2c1 [Compound 50, 1-hydroxy-N-((5-(2-((6-methoxy-2-methylquinazolin-4-yl)thio)acetyl)thiophen-2-yl)methyl)cyclopropane-1-carboxamide] | 100 to 500
Cn1ncc2c(SCC(=O)c3ccc(CNC(=O)C(C)(C)O)s3)ncnc21 [Compound 52, 2-hydroxy-2-methyl-N-((5-(2-((1-methyl-1H-pyrazolo[3,4-d]pyrimidin-4-yl)thio)acetyl)thiophen-2-yl)methyl)propanamide] | 500 to 1000
CCc1nc(SCC(=O)c2ccc(CNC(=O)CO)s2)c2ccccc2n1 [Compound 62, N-((5-(2-((2-ethylquinazolin-4-yl)thio)acetyl)thiophen-2-yl)methyl)-2-hydroxyacetamide] | ≤ 100
Cc1nc(SCC(=O)c2ccc(CNC(=O)CO)s2)c2cn(C)nc2n1 [Compound 65, N-((5-(2-((2,6-dimethyl-2H-pyrazolo[3,4-d]pyrimidin-4-yl)thio)acetyl)thiophen-2-yl)methyl)-2-hydroxyacetamide] | 500 to 1000
Cc1nc(SCC(=O)c2ccc(CNC(=O)CO)s2)c2ccccc2n1 [Compound 66, 2-hydroxy-N-((5-(2-((2-methylquinazolin-4-yl)thio)acetyl)thiophen-2-yl)methyl)acetamide] | ≤ 100
Cc1nc(SCC(=O)c2ccc(CNC(=O)CO)s2)c2cc(F)ccc2n1 [Compound 67, N-((5-(2-((6-fluoro-2-methylquinazolin-4-yl)thio)acetyl)thiophen-2-yl)methyl)-2-hydroxyacetamide] | 100 to 500
Cc1nc(SCC(=O)c2ccc(CNC(=O)CO)s2)c2ccc(F)cc2n1 [Compound 68, N-((5-(2-((7-fluoro-2-methylquinazolin-4-yl)thio)acetyl)thiophen-2-yl)methyl)-2-hydroxyacetamide] | 100 to 500
COc1ccc2c(SCC(=O)c3ccc(CNC(=O)CO)s3)nc(C)nc2c1 [Compound 70, 2-hydroxy-N-((5-(2-((7-methoxy-2-methylquinazolin-4-yl)thio)acetyl)thiophen-2-yl)methyl)acetamide] | 100 to 500

Continued, values first:

IC50 [nM] | Structure (SMILES)
≤ 100 | CC(NC(=O)CO)c1ccc(C(=O)CSc2nc3cnc(C(F)(F)F)cc3o2)s1 (stereo in doubt) [Example 129, (S)-2-hydroxy-N-(1-(5-(2-((6-(trifluoromethyl)oxazolo[4,5-c]pyridin-2-yl)thio)acetyl)thiophen-2-yl)ethyl)acetamide]
≤ 100 | O=C(CSc1nc(C(F)(F)F)nc2ncccc12)c1ccc(CN2CCC(O)C2=O)s1 (stereo in doubt) [Example 156, (R)-3-hydroxy-1-((5-(2-((2-(trifluoromethyl)pyrido[2,3-d]pyrimidin-4-yl)thio)acetyl)thiophen-2-yl)methyl)pyrrolidin-2-one]
≤ 100 | Cc1nc(SCC(=O)c2ccc(CNC(=O)CO)s2)c2cc(OC3CC3)ccc2n1 [Compound 77, N-((5-(2-((6-cyclopropoxy-2-methylquinazolin-4-yl)thio)acetyl)thiophen-2-yl)methyl)-2-hydroxyacetamide]
≤ 100 | Cc1nc(SCC(=O)c2ccc(CNC(=O)CO)s2)c2cc(NCC3CC3)ccc2n1 [Compound 78, N-((5-(2-((6-((cyclopropylmethyl)amino)-2-methylquinazolin-4-yl)thio)acetyl)thiophen-2-yl)methyl)-2-hydroxyacetamide]
≤ 100 | COc1ccc2nc(C(F)(F)F)nc(SCC(=O)c3ccc(CNC(=O)CO)s3)c2c1 [Compound 80, 2-hydroxy-N-((5-(2-((6-methoxy-2-(trifluoromethyl)quinazolin-4-yl)thio)acetyl)thiophen-2-yl)methyl)acetamide]
≤ 100 | Cc1nc(SCC(=O)c2ccc(CNC(=O)CO)s2)c2cc(N3CCOCC3)ccc2n1 [Compound 81, 2-hydroxy-N-((5-(2-((2-methyl-6-morpholinoquinazolin-4-yl)thio)acetyl)thiophen-2-yl)methyl)acetamide]
≤ 100 | Cc1nc(SCC(=O)c2ccc(CNC(=O)CO)s2)c2cc(N3CCCCC3)ccc2n1 [Compound 82, 2-hydroxy-N-((5-(2-((2-methyl-6-(piperidin-1-yl)quinazolin-4-yl)thio)acetyl)thiophen-2-yl)methyl)acetamide]
≤ 100 | Cc1nc(SCC(=O)c2ccc(CNC(=O)CO)s2)c2cc(N3CCCOCC3)ccc2n1 [Compound 83, 2-hydroxy-N-((5-(2-((2-methyl-6-(1,4-oxazepan-4-yl)quinazolin-4-yl)thio)acetyl)thiophen-2-yl)methyl)acetamide]
≤ 100 | Cc1nc(SCC(=O)c2ccc(CNC(=O)CO)s2)c2cc(N3CCC(F)(F)C3)ccc2n1 [Compound 84, N-((5-(2-((6-(3,3-difluoropyrrolidin-1-yl)-2-methylquinazolin-4-yl)thio)acetyl)thiophen-2-yl)methyl)-2-hydroxyacetamide]
1000 to 10000 | Cn1ncc2c(SCC(=O)c3ccc(C4CCN(C(=O)CO)C4)s3)ncnc21 (stereo not drawn) [Compound 86, 2-hydroxy-1-(3-(5-(2-((1-methyl-1H-pyrazolo[3,4-d]pyrimidin-4-yl)thio)acetyl)thiophen-2-yl)157yrrolidine-1-yl)ethan-1-one]
1000 to 10000 | Cn1ncc2c(SCC(=O)c3ccc(CNS(=O)(=O)c4ccccc4)s3)ncnc21 [Compound 88, N-((5-(2-((1-methyl-1H-pyrazolo[3,4-d]pyrimidin-4-yl)thio)acetyl)thiophen-2-yl)methyl)benzenesulfonamide]
1000 to 10000 | Cn1ncc2c(SCC(=O)c3ccc(CNS(=O)(=O)C4CC4)s3)ncnc21 [Compound 89, N-((5-(2-((1-methyl-1H-pyrazolo[3,4-d]pyrimidin-4-yl)thio)acetyl)thiophen-2-yl)methyl)cyclopropanesulfonamide]
500 to 1000 | Cn1ncc2c(SCC(=O)c3ccc(C4CCN(S(N)(=O)=O)C4)s3)ncnc21 (stereo not drawn) [Compound 96, 3-(5-(2-((1-methyl-1H-pyrazolo[3,4-d]pyrimidin-4-yl)thio)acetyl)thiophen-2-yl)pyrrolidine-1-sulfonamide]
≤ 100 | CC(=O)NCc1ccc(C(=O)CSc2nc(C(F)(F)F)nc3ccccc23)s1 [Compound 99, N-((5-(2-((2-(trifluoromethyl)quinazolin-4-yl)thio)acetyl)thiophen-2-yl)methyl)acetamide]
100 to 500 | CC(=O)NCCc1ccc(C(=O)CSc2nc(C(F)(F)F)nc3ccccc23)s1 [Compound 100, N-(2-(5-(2-((2-(trifluoromethyl)quinazolin-4-yl)thio)acetyl)thiophen-2-yl)ethyl)acetamide]
100 to 500 | Cn1ncc2c(SCC(=O)c3ccc(CNC(=O)C(C)(C)C)s3)ncnc21 [Compound 102, N-((5-(2-((1-methyl-1H-pyrazolo[3,4-d]pyrimidin-4-yl)thio)acetyl)thiophen-2-yl)methyl)pivalamide]
